Values quoted from earlier work in patent publication EP2166560A1, “Maldi matrices” (Max-Planck-Gesellschaft zur Förderung der Wissenschaften …, priority 2008, dated 2010).

Conditions: representative medium strong acid

Structure (SMILES): CCCCCCCCCCCCCCCCCC(=O)O [stearic acid]
- pK: 10.15
